# Reference: patent US7795288B2, “Thiazole and pyrazole derivatives as Flt-3 kinase inhibitors” (Novartis AG, priority 2003, dated 2010)
# Biological target: T1, cytoplasmic kinase domain of human Flt-3 (GST-Flt-3) (Homo sapiens, UniProt P36888)
# T1 construct: expressing the amino acid region amino acids 563-993 of the cytoplasmic kinase domain of human Flt-3; made in house; host or cells: Sf9 insect cells (baculovirus, pFbacG01 donor vector)
# T1 sequence (P36888 563-993): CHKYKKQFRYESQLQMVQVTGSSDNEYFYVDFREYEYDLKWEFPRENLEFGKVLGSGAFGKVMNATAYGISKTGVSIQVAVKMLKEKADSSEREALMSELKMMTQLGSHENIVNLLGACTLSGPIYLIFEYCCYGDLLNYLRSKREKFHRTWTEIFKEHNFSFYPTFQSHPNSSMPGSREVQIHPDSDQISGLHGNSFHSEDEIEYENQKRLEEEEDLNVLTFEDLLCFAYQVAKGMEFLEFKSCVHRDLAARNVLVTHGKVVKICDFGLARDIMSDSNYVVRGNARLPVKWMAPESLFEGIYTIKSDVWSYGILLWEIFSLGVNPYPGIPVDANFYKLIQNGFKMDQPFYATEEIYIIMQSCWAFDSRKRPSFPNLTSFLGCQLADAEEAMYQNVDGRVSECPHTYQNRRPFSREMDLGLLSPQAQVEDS
# Test: Inhibition of the protein tyrosine kinase activity of Flt-3 (GST-Flt-3, 33P incorporation into poly(Glu, Tyr))
# Type: biochemical
# Details: purified GST-Flt-3, 8.0 μM ATP, poly(Glu, Tyr) 4:1, 20 min at ambient temperature
# Excerpt: The baculovirus donor vector pFbacG01 (GIBCO) is used to generate a recombinant baculovirus expressing the amino acid region amino acids 563-993 of the cytoplasmic kinase domain of human Flt-3. The coding sequence for the cytoplasmic domain of Flt-3 is amplified by PCR from human c-DNA libraries (Clontech). The amplified DNA fragments and the pFbacG01 vector are made compatible for ligation by digestion with BamH1 and HindIII. Ligation of these DNA fragments results in the baculovirus donor plasmid Flt-3 (1.1). The production of the viruses, the expression of proteins in Sf9 cells and the purification of the GST-fused proteins are performed as follows: Production of virus: Transfer vector (pFbacG01-Flt-3) containing the Flt-3 kinase domain is transfected into the DH10Bac cell line (GIBCO) and the transfected cells are plated on selective agar plates. Colonies without insertion of the fusion sequence into the viral genome (carried by the bacteria) are blue. Single white colonies are picked and viral DNA (bacmid) is isolated from the bacteria by standard plasmid purification procedures. Sf9 or Sf21 cells (American Type Culture Collection) are then transfected in flasks with the viral DNA using Cellfectin reagent. Protein expression in Sf9 cells: Virus containing media is collected from the transfected cell culture and used for infection to increase its titre. Virus containing media obtained after two rounds of infection is used for large-scale protein expression. For large-scale protein expression 100 cm^2 round tissue culture plates are seeded with 5×10^7 cells/plate and infected with 1 mL of virus-containing media (approx. 5 MOIs). After 3 days the cells are scraped off the plate and centrifuged at 500 rpm for 5 min. Cell pellets from 10-20, 100 cm^2 plates are resuspended in 50 mL of ice-cold lysis buffer (25 mM Tris-HCl, pH 7.5, 2 mM EDTA, 1% NP-40, 1 mM DTT, 1 mM PMSF). The cells are stirred on ice for 15 min and then centrifuged at 5000 rpms for 20 min. Purification of GST-tagged proteins: The centrifuged cell lysate is loaded onto a 2 mL glutathione-sepharose column (Pharmacia) and washed three times with 10 mL of 25 mM Tris-HCl, pH 7.5, 2 mM EDTA, 1 mM DTT, 200 mM NaCl. The GST-tagged protein is then eluted by 10 applications (1 mL each) of 25 mM Tris-HCl, pH 7.5, 10 mM reduced-glutathione, 100 mM NaCl, 1 mM DTT, 10% Glycerol and stored at −70° C. Measurement of enzyme activity: Tyrosine protein kinase assays with purified GST-Flt-3 are carried out in a final volume of 30 μL containing 200-1800 ng of enzyme protein (depending on the specific activity), 20 mM Tris-HCl, pH 7.6, 3 mM MnCl2, 3 mM MgCl2, 1 mM DTT, 10 μM Na3VO4, 3 μg/mL poly(Glu, Tyr) 4:1, 1% DMSO, 8.0 μM ATP and 0.1 μCi [γ^33 P] ATP. The activity is assayed in the presence or absence of inhibitors, by measuring the incorporation of ^33P from [γ^33P] ATP into the poly(Glu, Tyr) substrate. The assay (30 μL) is carried out in 96-well plates at ambient temperature for 20 min and terminated by the addition of 20 μL of 125 mM EDTA. Subsequently, 40 μL of the reaction mixture is transferred onto Immobilon-PVDF membrane (Millipore, Bedford, Mass., USA) previously soaked for 5 min with methanol, rinsed with water, then soaked for 5 min with 0.5% H3PO4 and mounted on vacuum manifold with disconnected vacuum source. After spotting all samples, vacuum is connected and each well rinsed with 200 μL 0.5% H3PO4. Membranes are removed and washed 4× on a shaker with 1.0% H3PO4, once with ethanol. Membranes are counted after drying at ambient temperature, mounting in Packard TopCount 96-well frame, and addition of 10 μL/well of Microscint™ (Packard). IC50 values are calculated by linear regression analysis of the percentage inhibition of each compound in duplicate, at four concentrations (usually 0.01, 0.1, 1 and 10 μM). One unit of protein kinase activity is defined as 1 nmole of ^33P transferred from [γ^33P] ATP to the substrate protein per minute per mg of protein at 37° C. […]
row,Structure (SMILES),IC50
1,"c1ccc(-c2cnc(Nc3ccc(OCCN4CCCC4)cc3)s2)cc1 [Example 1, (5-Phenyl-thiazol-2-yl)-[4-(2-pyrrolidin-1-yl-ethoxy)-phenyl]-amine]",41 nM
2,"Oc1ccc(-c2cnc(Nc3ccc(OCCN4CCCC4)cc3)s2)cc1 [Example 7, 4-{2-[4-(2-Pyrrolidin-1-yl-ethoxy)-phenylamino]-thiazol-5-yl}-phenol]",35 nM
3,"Oc1ccc(Nc2ncc(-c3ccsc3)s2)cc1 [Example 12, 4-(5-Thiophen-3-yl-thiazol-2-yl-amino)-phenol]",34 nM
4,"c1cc(-c2cc(Nc3ccc(OCCN4CCCC4)cc3)n[nH]2)cs1 [Example 34, [4-(2-Pyrrolidin-1-yl-ethoxy)-phenyl]-(5-thiophen-3-yl-1H-pyrazol-3-yl)-amine]",82 nM

# Stronger by IC50, values ahead:
row,IC50,Structure (SMILES)
1,31 nM,"CCN(CC)CCOc1ccc(Nc2cc(-c3ccsc3)[nH]n2)cc1 [Example 37, [4-(2-Diethylamino-ethoxy)-phenyl]-(5-thiophen-3-yl-1H-pyrazol-3-yl)-amine]"
2,24 nM,"COc1ccc(-c2cnc(Nc3ccc(N4CCN(C)CC4)cc3)s2)cc1 [Example 5, [5-(4-Methoxy-phenyl)-thiazol-2-yl]-[4-(4-methyl-piperazin-1-yl)-phenyl]-amine]"
3,22 nM,"c1cc(-c2cnc(Nc3ccc(OCCN4CCCCC4)cc3)s2)cs1 [Example 16, [4-(2-Piperidin-1-yl-ethoxy)-phenyl]-(5-thiophen-3-yl-thiazol-2-yl)-amine]"
